Values of other authors, collected in US20210338713A1, “Reduction of Pulmonary Inflammation Using Therapeutic Gas Mixtures” (Brain Cancer Research Institute, priority 2020, published 2021).

Key:
[1] = in vivo
[2] = in combination with oxygen
[3] = test system: pediatric patients with ARDS
ovine model of ARDS = conditions: inhalation, P<0.05
RDS patients = conditions: surviving patients, six months post-treatment, low-dose iNO

| Structure (SMILES) | toxic effects on main organs [1] | concentrations at which xenon exhibits anaesthetic effects [2] | patients with improved oxygenation ([3]; inhaled) | mean pulmonary artery pressure and intrapulmonary shunt ([3]; inhaled, without changing systemic arterial pressure or pulmonary capillary wedge pressure) | survival, patients with ARDS ([3]; low-dose inhaled NO (3 to 10 ppm) for 1 to 24 days, 5 of 10 patients) [%] | survival, non-ARDS patients ([3]; low-dose inhaled NO (3 to 10 ppm) for 1 to 24 days, 7 of 7 patients) [%] | arterial PO2 (ovine model of ARDS) | venous admixture (Qva/QT) (ovine model of ARDS; without altering cardiac output) | pulmonary arterial pressure (PAP) and resistance (ovine model of ARDS; without any systemic hemodynamic effects) | values for select pulmonary function tests versus placebo-treated patients (RDS patients) |
| --- | --- | --- | --- | --- | --- | --- | --- | --- | --- | --- |
| [Xe] [xenon] | does not induce significant toxic effects | 10-70 vol. % | – | – | – | – | – | – | – | – |
| [N]=O [nitric oxide] | – | – | 15 of 17 | lowered | 50 | 100 | increase | decrease | decrease | significantly better |
